The values that follow are results of earlier work, collected in patent US7091182B2, “Method for assisting in differential diagnosis and treatment of autistic syndromes” (Repligen Corporation, priority 1997, dated 2006).

The test system of the series is autistic patients. The conditions noted are these: cited from earlier work.

`O=C1CC[C@@]2(O)[C@H]3Cc4ccc(O)c5c4[C@@]2(CCN3CC2CC2)[C@H]1O5` [naltrexone]: the social behavior entry (double-blinded studies) is on record as “failed to produce significant changes”. Moreover, the positive response (open trial in autistic children) is 8 to 10 children were judged to show a positive response.
